From US8455475B2 (Gruenenthal GmbH, priority 2009, dated 2013)

These compounds were tested against T1, rat B1R (bradykinin receptor 1) (Rattus norvegicus, UniProt P97583) (assay: FLIPR Ca2+ assay (Fluo-4) on CHO K1 cells stably transfected with the B1R gene of the rat (rB1R cells): % inhibition at 10 μM / IC50, agonist Des-Arg9-bradykinin). Details: CHO-K1, rat B1R.
T1 construct: expressed in transfected cells; host or cells: CHO K1 cells
T1 sequence (P97583 1-337): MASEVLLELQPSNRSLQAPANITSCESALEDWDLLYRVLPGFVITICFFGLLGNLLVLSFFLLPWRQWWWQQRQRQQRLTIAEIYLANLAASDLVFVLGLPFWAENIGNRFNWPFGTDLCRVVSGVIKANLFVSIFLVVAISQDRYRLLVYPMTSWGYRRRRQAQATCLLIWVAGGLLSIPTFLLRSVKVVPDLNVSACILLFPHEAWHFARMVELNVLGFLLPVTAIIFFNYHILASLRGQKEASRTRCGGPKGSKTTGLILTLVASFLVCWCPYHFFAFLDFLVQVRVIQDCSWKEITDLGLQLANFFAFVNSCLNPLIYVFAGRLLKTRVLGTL
Type: cell-based
Summary of the method: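 Stably transfected CHO K1 cells loaded with Fluo-4 and read on FLIPR (λex 488, λem 540 nm; peak fluorescence). Test substance (10 μM) added first, then after 10–20 min the agonist at EC80; % inhibition versus maximum achievable inhibition. IC50 from several concentrations, n=2–3, N≥2.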

inhibition at 10 µM [%] | SMILES
91 | Cc1cccc(Cl)c1C(=O)NC1CCc2ccc(C(=O)N3CCC4(CCN(CCc5ccccc5)CC4)C3)cc21 (centres unmarked) [IND_CC-769, 2-Chloro-6-methyl-N-[6-(8-phenethyl-2,8-diazaspiro[4.5]decane-2-carbonyl)-2,3-dihydro-1H-inden-1-yl]-benzamide]
109 | Cc1cccc(Cl)c1C(=O)NC1CCc2ccc(C(=O)N3CCC4(CCN(CCCc5cccc(F)c5)CC4)C3)cc21 (centres unmarked) [IND_CC-770, 2-Chloro-N-[6-[8-[3-(3-fluorophenyl)-propyl]-2,8-diazaspiro[4.5]decane-2-carbonyl]-2,3-dihydro-1H-inden-1-yl]-6-methyl-benzamide]
108 | Cc1cccc(Cl)c1C(=O)NC1CCc2ccc(C(=O)N3CCC4(CCN(CCCc5ccc(F)cc5)CC4)C3)cc21 (centres unmarked) [IND_CC-771, 2-Chloro-N-[6-[8-[3-(4-fluorophenyl)-propyl]-2,8-diazaspiro[4.5]decane-2-carbonyl]-2,3-dihydro-1H-inden-1-yl]-6-methyl-benzamide]
52 | CCn1cc(CN2CCC3(CC2)CCN(C(=O)c2ccc4c(c2)C(NC(=O)c2c(F)cccc2Cl)CC4)C3)c(C)n1 (centres unmarked) [IND_CC-772, 2-Chloro-N-[6-[8-[(1-ethyl-3-methyl-1H-pyrazol-4-yl)-methyl]-2,8-diazaspiro-[4.5]decane-2-carbonyl]-2,3-dihydro-1H-inden-1-yl]-6-fluoro-benzamide]
80 | CN(C)c1ncc(CN2CCC3(CC2)CCN(C(=O)c2ccc4c(c2)C(NC(=O)c2c(F)cccc2Cl)CC4)C3)cn1 (centres unmarked) [IND_CC-773, 2-Chloro-N-[6-[8-[(2-dimethylamino-pyrimidin-5-yl)-methyl]-2,8-diazaspiro-[4.5]decane-2-carbonyl]-2,3-dihydro-1H-inden-1-yl]-6-fluoro-benzamide]
81 | O=C(NC1CCc2ccc(C(=O)N3CCC4(CCN(Cc5ccc6ncccc6c5)CC4)C3)cc21)c1c(F)cccc1Cl (centres unmarked) [IND_CC-774, 2-Chloro-6-fluoro-N-[6-[8-(quinolin-6-yl-methyl)-2,8-diazaspiro[4.5]decane-2-carbonyl]-2,3-dihydro-1H-inden-1-yl]-benzamide]
98 | O=C(NC1CCc2ccc(C(=O)N3CCC4(CCN(Cc5ccc6nccnc6c5)CC4)C3)cc21)c1c(F)cccc1Cl (centres unmarked) [IND_CC-775, 2-Chloro-6-fluoro-N-[6-[8-(quinoxalin-6-yl-methyl)-2,8-diazaspiro[4.5]decane-2-carbonyl]-2,3-dihydro-1H-inden-1-yl]-benzamide]
99 | Cn1nnc2cc(CN3CCC4(CC3)CCN(C(=O)c3ccc5c(c3)C(NC(=O)c3c(F)cccc3Cl)CC5)C4)ccc21 (centres unmarked) [IND_CC-776, 2-Chloro-6-fluoro-N-[6-[8-[(1-methyl-1H-benzotriazol-5-yl)-methyl]-2,8-diazaspiro[4.5]decane-2-carbonyl]-2,3-dihydro-1H-inden-1-yl]-benzamide]
83 | CC(C)CN1CCC2(CC1)CCN(C(=O)c1ccc3c(c1)C(NC(=O)c1c(F)cccc1Cl)CC3)C2 (centres unmarked) [IND_CC-777, 2-Chloro-6-fluoro-N-[6-[8-(2-methyl-propyl)-2,8-diazaspiro[4.5]decane-2-carbonyl]-2,3-dihydro-1H-inden-1-yl]-benzamide]
105 | CCC(CC)CN1CCC2(CC1)CCN(C(=O)c1ccc3c(c1)C(NC(=O)c1c(F)cccc1Cl)CC3)C2 (centres unmarked) [IND_CC-778, 2-Chloro-N-[6-[8-(2-ethyl-butyl)-2,8-diazaspiro[4.5]decane-2-carbonyl]-2,3-dihydro-1H-inden-1-yl]-6-fluoro-benzamide]
69 | O=C(NC1CCc2ccc(C(=O)N3CCC4(CCN(CC5CCCCC5)CC4)C3)cc21)c1c(F)cccc1Cl (centres unmarked) [IND_CC-779, 2-Chloro-N-[6-[8-(cyclohexyl-methyl)-2,8-diazaspiro[4.5]decane-2-carbonyl]-2,3-dihydro-1H-inden-1-yl]-6-fluoro-benzamide]
101 | O=C(NC1CCc2ccc(C(=O)N3CCC4(CCN(CCc5ccccc5)CC4)C3)cc21)c1c(F)cccc1Cl (centres unmarked) [IND_CC-780, 2-Chloro-6-fluoro-N-[6-(8-phenethyl-2,8-diazaspiro[4.5]decane-2-carbonyl)-2,3-dihydro-1H-inden-1-yl]-benzamide]
106 | O=C(NC1CCc2ccc(C(=O)N3CCC4(CCN(CCCc5cccc(F)c5)CC4)C3)cc21)c1c(F)cccc1Cl (centres unmarked) [IND_CC-781, 2-Chloro-6-fluoro-N-[6-[8-[3-(3-fluorophenyl)-propyl]-2,8-diazaspiro[4.5]decane-2-carbonyl]-2,3-dihydro-1H-inden-1-yl]-benzamide]
107 | O=C(NC1CCc2ccc(C(=O)N3CCC4(CCN(CCCc5ccc(F)cc5)CC4)C3)cc21)c1c(F)cccc1Cl (centres unmarked) [IND_CC-782, 2-Chloro-6-fluoro-N-[6-[8-[3-(4-fluorophenyl)-propyl]-2,8-diazaspiro[4.5]decane-2-carbonyl]-2,3-dihydro-1H-inden-1-yl]-benzamide]
102 | O=C(NC1CCc2ccc(C(=O)N3CCC4(CCN(Cc5ccc[nH]5)CC4)CC3)cc21)c1c(F)cccc1Cl (centres unmarked) [IND_CC-783, 2-Chloro-6-fluoro-N-[6-[9-(1H-pyrrol-2-yl-methyl)-3,9-diazaspiro[5.5]undecane-3-carbonyl]-2,3-dihydro-1H-inden-1-yl]-benzamide]
99 | O=C(NC1CCc2ccc(C(=O)N3CCC4(CCN(Cc5ccccn5)CC4)CC3)cc21)c1c(F)cccc1Cl (centres unmarked) [IND_CC-784, 2-Chloro-6-fluoro-N-[6-[9-(pyridin-2-yl-methyl)-3,9-diazaspiro[5.5]undecane-3-carbonyl]-2,3-dihydro-1H-inden-1-yl]-benzamide]
98 | O=C(NC1CCc2ccc(C(=O)N3CCC4(CCN(Cc5ccncc5)CC4)CC3)cc21)c1c(F)cccc1Cl (centres unmarked) [IND_CC-785, 2-Chloro-6-fluoro-N-[6-[9-(pyridin-4-yl-methyl)-3,9-diazaspiro[5.5]undecane-3-carbonyl]-2,3-dihydro-1H-inden-1-yl]-benzamide]
104 | O=C(NC1CCc2ccc(C(=O)N3CCC4(CCN(Cc5cccnc5)CC4)CC3)cc21)c1c(F)cccc1Cl (centres unmarked) [IND_CC-786, 2-Chloro-6-fluoro-N-[6-[9-(pyridin-3-yl-methyl)-3,9-diazaspiro[5.5]undecane-3-carbonyl]-2,3-dihydro-1H-inden-1-yl]-benzamide]
93 | Cn1cccc1CN1CCC2(CC1)CCN(C(=O)c1ccc3c(c1)C(NC(=O)c1c(F)cccc1Cl)CC3)CC2 (centres unmarked) [IND_CC-787, 2-Chloro-6-fluoro-N-[6-[9-[(1-methyl-1H-pyrrol-2-yl)-methyl]-3,9-diazaspiro[5.5]undecane-3-carbonyl]-2,3-dihydro-1H-inden-1-yl]-benzamide]
71 | O=C(NC1CCc2ccc(C(=O)N3CCC4(CCN(Cc5c(F)cccc5F)CC4)CC3)cc21)c1c(F)cccc1Cl (centres unmarked) [IND_CC-788, 2-Chloro-N-[6-[9-[(2,6-difluoro-phenyl)-methyl]-3,9-diazaspiro[5.5]undecane-3-carbonyl]-2,3-dihydro-1H-inden-1-yl]-6-fluoro-benzamide]
98 | O=C(NC1CCc2ccc(C(=O)N3CCC4(CCN(Cc5ccc(F)c(F)c5)CC4)CC3)cc21)c1c(F)cccc1Cl (centres unmarked) [IND_CC-789, 2-Chloro-N-[6-[9-[(3,4-difluoro-phenyl)-methyl]-3,9-diazaspiro[5.5]undecane-3-carbonyl]-2,3-dihydro-1H-inden-1-yl]-6-fluoro-benzamide]
96 | O=C(NC1CCc2ccc(C(=O)N3CCC4(CCN(Cc5cc(F)ccc5F)CC4)CC3)cc21)c1c(F)cccc1Cl (centres unmarked) [IND_CC-790, 2-Chloro-N-[6-[9-[(2,5-difluoro-phenyl)-methyl]-3,9-diazaspiro[5.5]undecane-3-carbonyl]-2,3-dihydro-1H-inden-1-yl]-6-fluoro-benzamide]
91 | O=C(NC1CCc2ccc(C(=O)N3CCC4(CCN(Cc5ccc(F)cc5F)CC4)CC3)cc21)c1c(F)cccc1Cl (centres unmarked) [IND_CC-791, 2-Chloro-N-[6-[9-[(2,4-difluoro-phenyl)-methyl]-3,9-diazaspiro[5.5]undecane-3-carbonyl]-2,3-dihydro-1H-inden-1-yl]-6-fluoro-benzamide]
89 | COc1ccc(CN2CCC3(CC2)CCN(C(=O)c2ccc4c(c2)C(NC(=O)c2c(F)cccc2Cl)CC4)CC3)cc1F (centres unmarked) [IND_CC-792, 2-Chloro-6-fluoro-N-[6-[9-[(3-fluoro-4-methoxy-phenyl)-methyl]-3,9-diazaspiro[5.5]undecane-3-carbonyl]-2,3-dihydro-1H-inden-1-yl]-benzamide]
79 | COc1cccc(F)c1CN1CCC2(CC1)CCN(C(=O)c1ccc3c(c1)C(NC(=O)c1c(F)cccc1Cl)CC3)CC2 (centres unmarked) [IND_CC-793, 2-Chloro-6-fluoro-N-[6-[9-[(2-fluoro-6-methoxy-phenyl)-methyl]-3,9-diazaspiro[5.5]undecane-3-carbonyl]-2,3-dihydro-1H-inden-1-yl]-benzamide]
59 | COc1ccc(CN2CCC3(CC2)CCN(C(=O)c2ccc4c(c2)C(N2Cc5c(c6c(Cl)cccc6n5C)C2=O)CC4)C3)cc1F (centres unmarked) [IND_CC-794, 8-Chloro-2-[6-[8-[(3-fluoro-4-methoxy-phenyl)-methyl]-2,8-diazaspiro[4.5]-decane-2-carbonyl]-2,3-dihydro-1H-inden-1-yl]-4-methyl-3,4-dihydro-2H-pyrrolo[3,4-b]indol-1-one]
